Assay [1] has as its system human melanoma cells. Briefly: Transfer of AO to tumour cells, spectrofluorimeter. As to conditions: AO 0.1 pg/mL; cells cultured in unbuffered medium. It counts as cell-based. The source says:
Acridine orange was not activated with blue light.

Assay [2] concerns drug-resistant CEM/VBL100 cells. Briefly: Cytotoxicity by Trypan blue assay on CEM/VBL100 cells. The conditions noted are these: CEM/VBL100, 24 h. It counts as cell-based. The procedure:
Increasing concentrations of VBL alone and loaded into the plant nanovesicles were used to assess the cytotoxic effect on CEM and CEM/VBL100 leukaemic cells by Trypan blue assay after 48 and 24 h of incubation, respectively. A) The cytotoxic effect on CEM cells starts to be evident at a concentration of 1000 ng/mL and is enhanced in VBL loaded in the plant nanovesicles (2.6-fold higher than in VBL alone).

For the compound `CN(C)c1ccc2cc3ccc(N(C)C)cc3nc2c1` [AO, Acridine Orange], in assay [1], the “percentage of AO transferred to tumour cells” value was “significantly reduced”. By mortality is commonly meant the share of the test organisms that died. The low end stands for more survivors, the high end for fewer survivors. As to `CC[C@]1(O)C[C@@H]2CN(CCc3c([nH]c4ccccc34)[C@@](C(=O)OC)(c3cc4c(cc3OC)N(C)[C@H]3[C@@](O)(C(=O)OC)[C@H](OC(C)=O)[C@]5(CC)C=CCN6CC[C@]43[C@@H]65)C2)C1` [VBL, vinblastine], in assay [2], the mortality at 0.0001 µg/mL was 0.7%.

Source of the values: US20240156744A1, “METHOD OF APPLYING ELECTRICAL IMPULSES FOR THE PURPOSE OF LOADING VARIOUS MOLECULES INTO PLANT-DERIVED NANOVESICLES” (EXO LAB ITALIA, S.r.l., priority 2021, published 2024).
